Test results from US11566030B2, “Substituted 2,6-dihydropyrrolo[3,4-c]pyrazoles as pyruvate kinase activators” (priority 2021, dated 2023).
Read-outs that look alike come from different tables or passages of the source.

Target: T1, Human pyruvate kinase R (PKR) (Homo sapiens, UniProt P30613)
T1 construct: Human pyruvate kinase R (PKR), residues 14-574; 6xHis-8xArg-SUMO (N, cleaved yes); host or cells: E. coli
Experiment: Biochemical assay for activation of pyruvate kinase R (Kinase-Glo luminescence, ATP generation)
Details: for Emax: read-out: PKR % activation, maximal activation level achieved with each compound relative to the activation level achieved by AG-348 @ 10 μM
Summary of the method: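 Recombinant human PKR (residues 14-574) expressed in E. coli with His-Arg-SUMO tag, tag cleaved, purified by Ni-NTA, anion exchange and size exclusion. Activation read as ATP generation by Kinase-Glo luminescence.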

[1] = PKR AC50 (nM), 0.1 nM PKR, 0.3 mM ADP, 0.1 mM PEP, 1% DMSO

T1 sequence (P30613 14-574): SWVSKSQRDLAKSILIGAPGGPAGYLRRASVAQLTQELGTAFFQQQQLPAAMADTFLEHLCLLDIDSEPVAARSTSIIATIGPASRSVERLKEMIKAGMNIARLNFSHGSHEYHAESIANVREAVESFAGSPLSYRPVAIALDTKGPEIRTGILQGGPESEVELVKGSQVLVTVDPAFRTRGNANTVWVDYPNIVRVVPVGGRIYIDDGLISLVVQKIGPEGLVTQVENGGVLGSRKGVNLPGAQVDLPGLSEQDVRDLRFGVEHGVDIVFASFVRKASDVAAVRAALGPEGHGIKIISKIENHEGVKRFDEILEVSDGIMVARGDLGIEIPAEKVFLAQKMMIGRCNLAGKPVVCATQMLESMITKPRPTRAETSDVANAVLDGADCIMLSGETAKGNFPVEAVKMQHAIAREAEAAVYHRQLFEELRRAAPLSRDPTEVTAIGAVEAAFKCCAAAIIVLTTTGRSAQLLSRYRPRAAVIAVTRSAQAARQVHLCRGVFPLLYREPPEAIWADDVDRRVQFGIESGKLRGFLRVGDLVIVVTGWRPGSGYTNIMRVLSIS

AC50 [1] | Emax | PKR % activation (maximal activation level achieved with each compound relative to the activation level achieved by AG-348 @ 10 μM) | AC50 | Structure (SMILES)
5.4 nM | 97% |  |  | O=C([C@H](CO)c1ccccc1)N1Cc2cn(S(=O)(=O)c3cnn(CC(F)F)c3)nc2C1 [Compound 1, (2S)-1-(2-{[1-(2,2-difluoroethyl)-1H-pyrazol-4-yl]sulfonyl}-2H,4H,5H,6H-pyrrolo[3,4-c]pyrazol-5-yl)-3-hydroxy-2-phenylpropan-1-one]
 | 63% |  | 26 nM | O=C([C@H](CO)c1ccccc1OCCO)N1Cc2cn(S(=O)(=O)c3cnn(CC(F)F)c3)nc2C1 (single isomer, unassigned) [Compound 109]
 | 122% |  | 170 nM | O=C([C@@H](CO)c1cccc(F)c1Cl)N1Cc2cn(S(=O)(=O)c3cnn(CC(F)F)c3)nc2C1 [Compound 56, (2R)-2-(2-chloro-3-fluorophenyl)-1-{2-[1-(2,2-difluoroethyl)pyrazol-4-ylsulfonyl]-4H,6H-pyrrolo[3,4-c]pyrazol-5-yl}-3-hydroxypropan-1-one]
74 nM | 67% |  |  | CCc1ccccc1[C@@H](CO)C(=O)N1Cc2cn(S(=O)(=O)c3cnn(CC(F)F)c3)nc2C1 [Compound 105, (S)-1-(2-((1-(2,2-difluoroethyl)-1H-pyrazol-4-yl)sulfonyl)-2,6-dihydropyrrolo[3,4-c]pyrazol-5(4H)-yl)-2-(2-ethylphenyl)-3-hydroxypropan-1-one]
130 nM | 125% |  |  | O=C([C@@H](CO)c1ccccc1F)N1Cc2cn(S(=O)(=O)c3cnn(CCF)c3)nc2C1 [Compound 35, (2R)-1-[2-[1-(2-fluoroethyl)pyrazol-4-ylsulfonyl]-4H,6H-pyrrolo[3,4c]pyrazol-5-yl]-2-(2-fluorophenyl)-3-hydroxypropan-1-one]
 | 102% |  | 16 nM | COc1ccccc1[C@@H](CO)C(=O)N1Cc2cn(S(=O)(=O)c3cnn(CC(F)F)c3)nc2C1 [Compound 120, (2S)-1-{2-[1-(2,2-difluoroethyl)pyrazol-4-ylsulfonyl]-4H,6H-pyrrolo[3,4-c]pyrazol-5-yl}-3-hydroxy-2-(2-methoxyphenyl)propan-1-one]
 | 180% |  | 120 nM | COCCOc1ccccc1[C@H](CO)C(=O)N1Cc2cn(S(=O)(=O)c3cnn(CC(F)F)c3)nc2C1 (single isomer, unassigned) [Compound 93]
 | 166% |  | 98 nM | COc1ccccc1[C@H](CO)C(=O)N1Cc2cn(S(=O)(=O)c3cnn(CC(F)F)c3)nc2C1 [Compound 121, (2R)-1-{2-[1-(2,2-difluoroethyl)pyrazol-4-ylsulfonyl]-4H,6H-pyrrolo[3,4-c]pyrazol-5-yl}-3-hydroxy-2-(2-methoxyphenyl)propan-1-one]
560 nM | 121% |  |  | COc1ccccc1[C@H](CO)C(=O)N1Cc2cn(S(=O)(=O)c3cnn(CC(F)F)c3C)nc2C1 [Compound 104, (2R)-1-{2-[1-(2,2-difluoroethyl)-5-methylpyrazol-4-ylsulfonyl]-4H,6H-pyrrolo[3,4-c]pyrazol-5-yl}-3-hydroxy-2-(2-methoxyphenyl)propan-1-one]
210 nM | 189% |  |  | CCc1ccccc1[C@H](CO)C(=O)N1Cc2cn(S(=O)(=O)c3cnn(CC(F)F)c3)nc2C1 [Compound 106, (R)-1-(2-((1-(2,2-difluoroethyl)-1H-pyrazol-4-yl)sulfonyl)-2,6-dihydropyrrolo[3,4-c]pyrazol-5(4H)-yl)-2-(2-ethylphenyl)-3-hydroxypropan-1-one]
 | 126% |  | 3 nM | O=C([C@H](CO)c1ccccc1Cl)N1Cc2cn(S(=O)(=O)c3cnn(CC(F)F)c3)nc2C1 [Compound 9, (2S)-2-(2-chlorophenyl)-1-[2-[1-(2,2-difluoroethyl)pyrazol-4-ylsulfonyl]-4H,6H-pyrrolo[3,4-c]pyrazol-5-yl]-3-hydroxypropan-1-one]

The remaining lines, values behind:

Structure (SMILES) | AC50 [1] | Emax | PKR % activation (maximal activation level achieved with each compound relative to the activation level achieved by AG-348 @ 10 μM) | AC50
O=C([C@H](OCCO)c1ccccc1F)N1Cc2cn(S(=O)(=O)c3ccn(CC(F)(F)F)n3)nc2C1 (single isomer, unassigned) [Compound 85] | > 10000 nM |  | 103% | 
O=C([C@H](O)c1ccccc1)N1Cc2cn(S(=O)(=O)c3cnn(CC(F)F)c3)nc2C1 [Compound 4, (2R)-1-(2-{[1-(2,2-difluoroethyl)-1H-pyrazol-4-yl]sulfonyl}-2H,4H,5H,6H-pyrrolo[3,4-c]pyrazol-5-yl)-2-hydroxy-2-phenylethan-1-one] |  | 62% |  | 22 nM
O=C([C@H](CO)c1ccccc1F)N1Cc2cn(S(=O)(=O)c3cnn(CC(F)(F)F)c3)nc2C1 [Compound 3, (2S)-2-(2-fluorophenyl)-3-hydroxy-1-(2-{[1-(2,2,2-trifluoroethyl)-1H-pyrazol-4-yl]sulfonyl}-2H,4H,5H,6H-pyrrolo[3,4-c]pyrazol-5-yl)propan-1-one] | 7.1 nM | 108% |  | 
C[C@@H](O)[C@@H](C(=O)N1Cc2cn(S(=O)(=O)c3cnn(CC(F)(F)F)c3)nc2C1)c1ccccc1 [Compound 49, (2S,3R)-3-hydroxy-2-phenyl-1-{2-[1-(2,2,2-trifluoroethyl)pyrazol-4-ylsulfonyl]-4H,6H-pyrrolo[3,4-c]pyrazol-5-yl}butan-1-one] | 71 nM | 113% |  | 
O=C([C@H](CO)c1ncccc1F)N1Cc2cn(S(=O)(=O)c3ccn(CC(F)F)n3)nc2C1 (single isomer, unassigned) [Compound 31] |  | 45% |  | 3600 nM
Cc1nc(C)c(S(=O)(=O)n2cc3c(n2)CN(C(=O)[C@H](CO)c2ccccc2)C3)s1 [Compound 15, (2S)-1-{2-[(2,4-dimethyl-1,3-thiazol-5-yl)sulfonyl]-2H,4H,5H,6H-pyrrolo[3,4-c]pyrazol-5-yl}-3-hydroxy-2-phenylpropan-1-one] |  | 15% |  | 44 nM
Cc1cn(CC(F)F)nc1S(=O)(=O)n1cc2c(n1)CN(C(=O)[C@@H](CO)c1ccccc1)C2 [Compound 77, (2R)-1-{2-[1-(2,2-difluoroethyl)-4-methylpyrazol-3-ylsulfonyl]-4H,6H-pyrrolo[3,4-c]pyrazol-5-yl}-3-hydroxy-2-phenylpropan-1-one] | 0.51 nM | 16% |  | 
Cc1c(S(=O)(=O)n2cc3c(n2)CN(C(=O)[C@H](CO)c2ccccc2Cl)C3)cnn1CC(F)F [Compound 101, (2S)-2-(2-chlorophenyl)-1-{2-[1-(2,2-difluoroethyl)-5-methylpyrazol-4-ylsulfonyl]-4H,6H-pyrrolo[3,4-c]pyrazol-5-yl}-3-hydroxypropan-1-one] | 8.5 nM | 123% |  | 
O=C([C@H](CO)c1ccccc1Cl)N1Cc2cn(S(=O)(=O)c3cnn(CCF)c3)nc2C1 [Compound 90, (2S)-2-(2-chlorophenyl)-1-{2-[1-(2-fluoroethyl)pyrazol-4-ylsulfonyl]-4H,6H-pyrrolo[3,4-c]pyrazol-5-yl}-3-hydroxypropan-1-one] | 5.7 nM | 131% |  | 
CCn1cc(S(=O)(=O)n2cc3c(n2)CN(C(=O)[C@@H](CO)c2ccccc2)C3)c(C(F)(F)F)n1 [Compound 95, (2R)-1-{2-[1-ethyl-3-(trifluoromethyl)pyrazol-4-ylsulfonyl]-4H,6H-pyrrolo[3,4-c]pyrazol-5-yl}-3-hydroxy-2-phenylpropan-1-one] | 2900 nM | 15% |  | 
Cc1c(S(=O)(=O)n2cc3c(n2)CN(C(=O)[C@@H](CO)c2ccccc2Cl)C3)cnn1CC(F)F [Compound 102, (2R)-2-(2-chlorophenyl)-1-{2-[1-(2,2-difluoroethyl)-5-methylpyrazol-4-ylsulfonyl]-4H,6H-pyrrolo[3,4-c]pyrazol-5-yl}-3-hydroxypropan-1-one] | 690 nM | 126% |  | 
CCn1ncc(S(=O)(=O)n2cc3c(n2)CN(C(=O)[C@@H](CO)c2ccccc2)C3)c1C(F)(F)F [Compound 112, (2R)-1-{2-[1-ethyl-5-(trifluoromethyl)pyrazol-4-ylsulfonyl]-4H,6H-pyrrolo[3,4-c]pyrazol-5-yl}-3-hydroxy-2-phenylpropan-1-one] | 3100 nM | 174% |  | 
COC(C(=O)N1Cc2cn(S(=O)(=O)c3cnn(CC(F)F)c3)nc2C1)c1ncccc1F (stereo not shown) [Compound 115, 1-(2-{[1-(2,2-difluoroethyl)-1H-pyrazol-4-yl]sulfonyl}-2H,4H,5H,6H-pyrrolo[3,4-c]pyrazol-5-yl)-2-(3-fluoropyridin-2-yl)-2-methoxyethan-1-one] |  | 96% |  | 2100 nM
O=C([C@@H](O)c1ncccc1F)N1Cc2cn(S(=O)(=O)c3ccn(CC(F)F)n3)nc2C1 (single isomer, unassigned) [Compound 29] | 420 nM | 86% |  | 
Cc1cn(CC(F)(F)F)nc1S(=O)(=O)n1cc2c(n1)CN(C(=O)[C@H](CO)c1ccccc1)C2 [Compound 66, (2S)-3-hydroxy-1-{2-[4-methyl-1-(2,2,2-trifluoroethyl)pyrazol-3-ylsulfonyl]-4H,6H-pyrrolo[3,4-c]pyrazol-5-yl}-2-phenylpropan-1-one] | 120 nM | 0% |  | 
Cc1nc(CCC(F)(F)F)sc1S(=O)(=O)n1cc2c(n1)CN(C(=O)[C@H](CO)c1ccccc1)C2 [Compound 20, (2S)-3-hydroxy-1-(2-{[4-methyl-2-(3,3,3-trifluoropropyl)-1,3-thiazol-5-yl]sulfonyl}-2H,4H,5H,6H-pyrrolo[3,4-c]pyrazol-5-yl)-2-phenylpropan-1-one] |  | 7% |  | 720 nM
C[C@@](CO)(C(=O)N1Cc2cn(S(=O)(=O)c3cnn(CC(F)F)c3)nc2C1)c1ccccn1 (single isomer, unassigned) [Compound 123] | > 10000 nM | 123% |  | 
O=C([C@H](CO)c1ccccc1)N1Cc2cn(S(=O)(=O)c3ccc(Br)s3)nc2C1 [Compound 19, (2S)-1-{2-[(5-bromothiophen-2-yl)sulfonyl]-2H,4H,5H,6H-pyrrolo[3,4-c]pyrazol-5-yl}-3-hydroxy-2-phenylpropan-1-one] | 19 nM | 67% |  | 
